{"source": "patent US12024721B2", "about": "“Method of differentiating human pluripotent stem cells to podocytes” (Wisconsin Alumni Research Foundation, priority 2017, dated 2024)", "key": {"IMR90-4 hPSCs": {"tested_on": "IMR90-4 hPSCs", "assay": "WT1 expression at day 6 by Western blot after treatment with BMP7, RA, FGF2 from day 2 to day 6", "type": "cell-based, human", "conditions": "treatment day 2 to day 6 in PM2", "protocol": "FIGS. 3A-3L Wnt signaling activation alone is sufficient to differentiate hPSCs into nephron progenitor cells. (A) Schematic of podocyte differentiation factor identification. Singularized IMR90-4 hPSCs were seeded on 12-well plates coated with Matrigel®, Synthemax® or vitronectin and expanded for 3 days in mTeSR®1. Podocyte differentiation was initiated with treatment using 6 μM CHIR (CHIR99021) for 48 h in PM1 followed by treatment with different combinations of 0.1 μM or 1 μM RA, 50 ng/mL BMP7 and 50 ng/mL FGF2 from day 2 to day 6 in PM2. (B) Cells at day 6 were assessed by Western blot for the expression level of WT1. (C) Expression level was quantified via Image J. The expression was first normalized to β-actin and then compared to WT1 expression in the absence of FGF2, RA and BMP7. (D, E) Expression of phosphorylated SMAD was assessed by Western blot after cells were treated with dorsomorphin (0 μM to 10 μM) from day 1 to day 3 or from day 3 to day 4. (F, G) Expression of BMP7 at day 1 and day 2 was verified by immunofluorescence and Western blot of cell lysate. (H, I) Cells were differentiated in the presence or absence of 1 μM dorsomorphin treatment from day 1 to day 3 and at day 16 were assessed for expression of PAX2 and WT1 by flow cytometry. Data were collected from three independent replicates and are plotted as mean±SEM. *p<0.05. ***p<0.001. […]"}, "[1]": {"tested_on": "BMP-induced SMAD1/5/8 phosphorylation", "assay": "Phosphorylated SMAD Western blot after dorsomorphin treatment of differentiating cells", "type": "cell-based, human", "conditions": "added from days 1-3 of differentiation; P-SMAD at day 3; 0 to 10 μM tested", "method": "Singularized IMR90-4 hPSCs were seeded on 12-well plates coated with Matrigel®, Synthemax® or vitronectin and expanded for 3 days in mTeSR®1. Podocyte differentiation was initiated with treatment using 6 μM CHIR (CHIR99021) for 48 h in PM1 followed by treatment with different combinations of 0.1 μM or 1 μM RA, 50 ng/mL BMP7 and 50 ng/mL FGF2 from day 2 to day 6 in PM2. […] (D, E) Expression of phosphorylated SMAD was assessed by Western blot after cells were treated with dorsomorphin (0 μM to 10 μM) from day 1 to day 3 or from day 3 to day 4. […] Data were collected from three independent replicates and are plotted as mean±SEM. *p<0.05. ***p<0.001. […] Cells were dissociated with Accutase® and rinsed with PBS twice before being lysed with RIPA (ROCKLAND) in the presence of 1% Halt Protease and Phosphatase Inhibitor Cocktail (Pierce). Protein concentration was determined by a BCA assay kit (Thermo Fisher) according to manufacturer's instructions. Samples containing 30 μg of total protein were loaded onto pre-cast 10% Tris-Glycine SDS/PAGE gels (Invitrogen) under denaturing conditions and transferred to a nitrocellulose membrane. After blocking with 5% non-fat milk in TBST, the membrane was incubated with primary antibody (Table 1) overnight at 4° C. […]"}, "[2]": {"tested_on": "IMR90-4 iPSC-derived podocytes", "assay": "Apoptosis assay: dead cells by trypan blue after TGF-β1", "type": "cell-based, human", "conditions": "5 or 50 ng/mL, 24 hr, day 16 podocytes; control 2%", "protocol": "(§1) At day 16, cells were treated with 500 ng/mL Ang II for 6 hr and phalloidin staining was used to assess changes in cytoskeletal structure. White arrows indicate the cells with peripheral F-actin. (B) More than 200 cells over 15 images were analyzed and the percentage of cells with peripherally-organized actin was calculated for control and Ang II-treated cells. Data are presented as mean percentage±SEM of three independent experiments over 15 images. Scale bars, 100 μm. (C) At day 16, cells were treated with 5 ng/mL and 50 ng/mL TGF-β1 for 24 hr. Detached cells were collected from the medium and combined with Accutase®-dissociated cells from the substrate. Cells were treated with trypan blue and the numbers of cells incorporating and excluding trypan blue were counted on a hemocytometer. Percentage of dead cells was calculated as the number of cells that incorporated trypan blue divided by the total cell number. […]\n(§2) Podocytes uptake albumin via endocytosis and degrade albumin in lysosomes^52,53. We assessed the ability of day 16 iPSC-derived podocytes to endocytose Alexa Fluor 555-labeled albumin in a temperature-dependent manner. […]\n(§3) Differentiated podocytes at day 16 were treated with 500 ng/ml Ang II for 6 hr or […] TGF-β1 for 24 hr. […] The cells treated with TGF-β1 after 24 hr were assessed by counting dead cells with trypan blue exclusion."}, "[3]": {"tested_on": "IMR90-4 iPSC-derived podocytes", "assay": "Contractility assay: actin reorganization (phalloidin staining) after Ang II", "type": "cell-based, human", "conditions": "500 ng/mL, 6 hr, day 16 podocytes; control about 20%", "protocol": "as §1, §2, §3"}, "hPSCs [4]": {"tested_on": "hPSCs", "conditions": "6 μM, undifferentiated hPSCs, serum-free and albumin-free medium, after 24 hours; cited from earlier work"}, "hPSCs [5]": {"tested_on": "hPSCs", "assay": "Primitive streak induction of hPSCs by Wnt activation (brachyury immunofluorescence / flow cytometry)", "type": "cell-based, human", "method": "Thus, as a first step toward differentiating hPSCs into podocytes, induced hPSCs (iPSCs) were seeded on a Matrigel®-coated surface at a density of ˜2×10^4 cells/cm^2 in mTeSR®1. After 3 days of expansion to a density of 6×10^4 cells/cm^2, the hPSCs were treated with 6 μM CHIR99201 for 48 hr in serum-free and albumin-free podocyte medium 1 (PM1: DMEM/F12, 1% MEM-NEAA, 0.5% GlutaMAX, 0.1 mM β-mercaptoethanol) (FIG. 1A). […] After 48 hr CHIR99201 treatment in PM1, the medium was switched to serum-free podocyte medium 2 (PM2: human endothelial serum-free medium (hESFM), 2% B-27®) and cultured to day 16. The kinetics of primitive streak induction were assessed by immunofluorescence and qRT-PCR. […] At day 0, differentiation was initiated by treating cells with 6 μM CHIR99021 (Selleckchem) in podocyte medium 1 (PM1): DMEM/Ham's F12 (Thermo Fisher), 100×MEM nonessential amino acids (Thermo Fisher), 200× GlutaMAX (Thermo Fisher), and 0.1 mM β-mercaptoethanol (Sigma) for 2 days. After 48 hr, medium was changed to podocyte medium 2 (PM2): human Endothelial Serum-Free Medium (hESFM) (Thermo Fisher) supplemented with 50× B-27®. […] Cells were stained with primary and secondary antibodies diluted in 0.5% BSA plus 0.1% Triton-X 100 as described.^34 Data were collected on a FACS Caliber flow cytometer (Beckton Dickinson) and analyzed using FlowJo®. […]"}}, "data": [{"molecule": "FGF2: fibroblast growth factor, exogenous growth factor", "values": [{"measurement": "effect on WT1 expression in the hPSC-derived podocytes", "setting": "IMR90-4 hPSCs", "result": "diminished"}]}, {"molecule": "c1cc(-c2cnn3cc(-c4ccc(OCCN5CCCCC5)cc4)cnc23)ccn1", "note": "[dorsomorphin]", "values": [{"measurement": "dorsomorphin concentration at which SMAD phosphorylation was completely inhibited", "setting": "[1]", "result": "higher than 5 μM"}]}, {"molecule": "TGF-β1: induces cell death in primary and immortalized podocytes", "values": [{"measurement": "percentage of dead cells (trypan blue uptake)", "setting": "[2]", "result": 15, "unit": "%"}]}, {"molecule": "angiotensin II [Ang II, induces podocyte damage by altering cytoskeletal structure and inducing contractility]", "values": [{"measurement": "percentage of cells with peripheral actin", "setting": "[3]", "result": "Over 50%"}]}, {"molecule": "Cc1c[nH]c(-c2cnc(NCCNc3ccc(C#N)cn3)nc2-c2ccc(Cl)cc2Cl)n1", "note": "[CHIR99021]", "values": [{"measurement": "population expressing primitive streak markers (prior study)", "setting": "hPSCs [4]", "result": "uniform population of cells expressing primitive streak markers"}, {"measurement": "ability alone to direct hPSC lines into intermediate mesoderm, nephron progenitors and mature podocytes", "setting": "hPSCs [5]; 6 μM alone, podocyte permissive medium, three different hPSC lines", "result": "sufficient"}, {"measurement": "cells expressing the primitive streak marker brachyury (positive population)", "setting": "hPSCs [5]; 6 μM, 24 hr treatment, PM1, iPSCs on Matrigel", "result": "~100", "unit": "%"}]}, {"molecule": "BMP7: bone morphogenetic protein, exogenous growth factor (protein, UniProt P18075 293-431, looked up) Bone morphogenetic protein 7: STGSKQRSQNRSKTPKNQEALRMANVAENSSSDQRQACKKHELYVSFRDLGWQDWIIAPEGYAAYYCEGECAFPLNSYMNATNHAIVQTLVHFINPETVPKPCCAPTQLNAISVLYFDDSSNVILKKYRNMVVRACGCH", "values": [{"measurement": "effect on WT1 expression in the hPSC-derived podocytes", "setting": "IMR90-4 hPSCs", "result": "diminished"}]}]}
